Laboratory results reported in patent publication US5426106A, “Pyrrolo-pyridazinone derivatives” (Merck Sharp & Dohme Limited, priority 1992, dated 1995).

Experiments:
NMDA receptors = experiment: Cortical slice studies, responses to NMDA in rat cortical slice; format: cell-based; settings: from righthand shift in NMDA concentration-response curves, read-out: apparent equilibrium constant (Kb) in response to NMDA
From the text: (§1) The compounds useful in this invention potently and selectively block responses to NMDA and/or AMPA in a brain slice from rat cortex, and inhibit the binding of agonists and antagonists to the strychnine-insensitive site present on the NMDA receptor and/or AMPA binding to rat forebrain membranes.
The effects of compounds of the invention on responses to NMDA and AMPA can be assessed using the rat cortical slice as described by Wong et al., Proc. Natl. Acad. Sci. USA, 1986, 83, 7104. The apparent equilibrium constant (Kb) is calculated from the righthand shift in the NMDA or AMPA concentration-response curves produced by the compound under test.

[1] = target: T1, strychnine-insensitive site present on the NMDA receptor (Rattus norvegicus, UniProt P35439); experiment: Displacement of 3H-L-689,560 binding to the strychnine-insensitive site of rat forebrain membranes; settings: 3H-L-689,560, rat forebrain membranes; read-out: concentration required to displace 50% of the specific binding (IC50)
T1 construct: NMDA receptor of rat forebrain membranes; from tissue; host or cells: rat forebrain membranes
From the text: as §1
The ability of test compounds to displace ^3 H-L-689,560 (trans-2-carboxy-5,7-dichloro-4-phenylaminocarbonylamino-1,2,3,4-tetrahydroquinoline) binding to the strychnine-insensitive site present on the NMDA receptor of rat forebrain membranes can be determined by the method of Grimwood et al., Proceedings of The British Pharmacological Society, July 1991, Abstract C78.

IC50 [1]: < 50 µM
SMILES: O=c1[nH]n2cccc2c(O)c1-c1ccccc1 [Example 1, 4-Hydroxy-3-phenylpyrrolo[1,2-b]pyridazin-2(1H)-one]
Kb (NMDA receptors): < 150 µM
